One series has as its system Influenza A virus. The series can be described thus: Antiviral activity against Influenza A/PR/8/34 infected in MDCK cells assessed as inhibition of virus-induced cytopathic effect measured on day 3 post infection by MTS assay. To be noted: A/Puerto Rico/8/1934(H1N1), 72 h. The class given is functional, organism-based.
The test system of series [1] is Staphylococcus epidermidis. The series is described as follows: Antibacterial activity against biofilm forming Staphylococcus epidermidis ATCC 35984 by broth microdilution method. The format is functional.
For series [2], the system named is Staphylococcus epidermidis. The series can be described thus: Antibacterial activity against Staphylococcus epidermidis expressing mecA gene by broth microdilution method. The class given is functional.
Series [3] can be described thus: Cytotoxicity against MDCK cells assessed as minimum concentration required to cause microscopically detectable alteration measured on day 3 post infection by MTS assay. The class given is cell-based, Canis lupus familiaris. Particulars: dog.
Series [4] deals with Enterococcus faecalis. The series is described as follows: Antibacterial activity against Enterococcus faecalis ATCC 29212 by broth microdilution method. The format is functional.
In series [5] the test system is Staphylococcus aureus. The series can be described thus: Antibacterial activity against methicillin-sensitive Staphylococcus aureus ATCC 29213 by broth microdilution method. The format is functional.
Series [6] relates to Enterococcus faecalis. The series is described as follows: Antibacterial activity against Enterococcus faecalis ATCC 15376 expressing vanA gene by broth microdilution method. The format is functional.
Another series has as its system Influenza B virus. The series can be described thus: Antiviral activity against Influenza B/HK/5/72 infected in MDCK cells assessed as inhibition of virus-induced cytopathic effect measured on day 3 post infection by MTS assay. The format is functional, cell-based. Particulars: B/Hong Kong/05/1972, MDCK, 72 h.
Series [7] has as its system Staphylococcus aureus. The series is described as follows: Antibacterial activity against methicillin-resistant Staphylococcus aureus ATCC 33591 by broth microdilution method. The class given is functional.
In another series the test system is H3N2 subtype. The series is described as follows: Antiviral activity against Influenza A/HK/7/87 infected in MDCK cells assessed as inhibition of virus-induced cytopathic effect measured on day 3 post infection by MTS assay. The format is functional, organism-based. Particulars: A/Hong Kong/7/1987(H3N2), 72 h.
Series [8] concerns Enterococcus faecalis. The series can be described thus: Antibacterial activity against Enterococcus faecalis ATCC 51299 expressing vanB gene by broth microdilution method. The format is functional.
A further series has as its system Bacillus subtilis. The series is described as follows: Antibacterial activity against Bacillus subtilis ATCC 6633 by broth microdilution method. The format is functional.

Each structure is given as a SMILES string. Values after ≈ are worked out from the molar mass of the structure shown.

Regarding `COC(=O)[C@H]1NC(=O)[C@H]2NC(=O)[C@H](NC(=O)[C@@H]3NC(=O)[C@H]4NC(=O)[C@H](NC(=O)[C@H](n5cc6cc7ccccc7cc6c5Sc5ncccn5)c5ccc(O)c(c5)Oc5cc4cc(O)c5C)[C@H](O)c4ccc(cc4)Oc4cc3cc(c4O)Oc3ccc(cc3)[C@H]2O)c2ccc(O)c(c2)-c2c(O)cc(O)cc21`, the EC50 in the series on Influenza A virus is 80 nM; in the series on Influenza B virus, above 100000 nM; with H3N2 subtype, 360 nM. Further, the MIC in [1] stood at 4 µg/mL (≈ 2.79 µM); in [2], 2 µg/mL (≈ 1.39 µM); against Enterococcus faecalis [4], 2 µg/mL (≈ 1.39 µM); with Staphylococcus aureus [5], 2 µg/mL (≈ 1.39 µM); in the series with Enterococcus faecalis [6], 2 µg/mL (≈ 1.39 µM); in the series on Staphylococcus aureus [7] it was 2 µg/mL (≈ 1.39 µM). In addition, the MIC against Enterococcus faecalis [8] and with Bacillus subtilis was 2 µg/mL (≈ 1.39 µM) throughout. Besides, in [3], the MCC at 3 days is at least 800 nM.

These data come from ChEMBL document CHEMBL2150984, “Synthesis of fluorescent ristocetin aglycon derivatives with remarkable antibacterial and antiviral activities” (Eur J Med Chem, 2012).
